Reference: patent US6593319B1, “Fusidic acid derivatives” (Leo Pharmaceutical Products, Ltd. A/S, priority 2001, dated 2003)

Legend:
Streptococcus - gr.B/61 = test: MIC, microtitter plates, liquid medium containing broth; format: cell-based
Method: (§1) In vitro investigations have evidenced high potency of compounds of the invention against several bacteria including staphylococci, streptococci, corynebacteriae and mycobacteriae. […] The biological tests are conducted on microtitter plates using liquid medium containing broth.

S. aureus/ATCC 29213 = test: as above; format: cell-based; conditions: FusS, MSSA
Method: as §1

S. aureus/1 Aus-pe = test: as above; format: cell-based; conditions: FusS, MRSA
Method: as §1

Staphylococcus/379-2 = test: as above; format: cell-based; conditions: Staphylococcus/379-2, coagulase negative, FusR
Method: as §1

S. aureus/54 USA-br = test: as above; format: cell-based; conditions: FusR, MSSA
Method: as §1

C. diphteria/62001 = test: as above; format: cell-based
Method: as §1

[1] = test system: E. faecalis/V583 P. Cour.; test: as above; format: cell-based; conditions: VanR
Method: as §1

N. meningitidis/K1 = test: as above; format: cell-based
Method: as §1

Staphylococcus/291-2 = test: as above; format: cell-based; conditions: Staphylococcus/291-2, coagulase negative, FusS
Method: as §1

[2] = test system: Streptococcus - gr.A/67011; test: as above; format: cell-based
Method: as §1

Streptococcus - gr.C/68 = test: as above; format: cell-based
Method: as §1

Streptococcus - gr.G/59 = test: as above; format: cell-based
Method: as §1

N. gonorrhoea/C1 = test: as above; format: cell-based
Method: as §1

M. tuberculosis/R 498 = test: as above; format: cell-based
Method: as §1

P. acnes/1060 = test: as above; format: cell-based
Method: as §1

S. aureus/22 DK = test: as above; format: cell-based; conditions: FusS, MSSA
Method: as §1

[3] = Stability in ethanol solution (retained activity); format: physicochemical; conditions: solution in ethanol stored at 0° C. for 1 month
[4] = test system: Strep. faecalis ATCC10541; test: MIC, agar diffusion method (European Pharmacopoeia 3rd Ed.); format: cell-based
Method: (§2) The antibacterial activity of some of these compounds relative to fusidic acid appears from Table 2 showing MIC values for compounds of the invention. The method used is recommended by the European Pharmacopoeia 3rd Ed. (1997) for testing the potency of antibiotics. It is an agar diffusion method where the same volume of the tested solution is added to cavities in agar. The inhibition zones are a function of the concentration of the fusidic acid analogue used. All assays are run with fusidic acid (1) as the reference substance. The results in Table 2 differ from those of Table 1 due to the different experimental methods used.

S. aureus Leo id. CJ232 = test: as above; format: cell-based; conditions: S. aureus Leo id. CJ232, MRSA
Method: as §2

S. aureus Leoid CJ234(R) = test: as above; format: cell-based; conditions: MRSA and Rifampicin resistant
Method: as §2

[5] = test system: Strep. faecium Leo id. E119(P); test: as above; format: cell-based; conditions: Penicillin resistant
Method: as §2

S. aureus ATCC6538P = test: as above; format: cell-based
Method: as §2

S. aureus ATCC2977 = test: as above; format: cell-based
Method: as §2

[6] = test system: Strep. epidermis A. ATCC12228; test: as above; format: cell-based
Method: as §2

[7] = test system: Strep. sp. Gr.B Leo id. EF6; test: as above; format: cell-based
Method: as §2

| Compound | MIC values (concentrations in μg/ml required for 90% inhibition) [4] | MIC values (concentrations in μg/ml required for 90% inhibition) (S. aureus Leo id. CJ232) [µg/mL] | MIC values (concentrations in μg/ml required for 90% inhibition) (S. aureus Leoid CJ234(R)) [µg/mL] | MIC values (concentrations in μg/ml required for 90% inhibition) [5] [µg/mL] | MIC values (concentrations in μg/ml required for 90% inhibition) (S. aureus ATCC6538P) [µg/mL] | MIC values (concentrations in μg/ml required for 90% inhibition) (S. aureus ATCC2977) [µg/mL] | MIC values (concentrations in μg/ml required for 90% inhibition) [6] [µg/mL] | MIC values (concentrations in μg/ml required for 90% inhibition) [7] [µg/mL] | other results |
| --- | --- | --- | --- | --- | --- | --- | --- | --- | --- |
| CC(=O)OC1CC2(C)C(CC(O)C3C4(C)CCC(O)C(C)C4CCC32C)C1C(CCC=C(C)C)C(=O)O [Compound 101, 17(S),20(S)-Dihydrofusidic Acid] | 3.7 µg/mL | 0.003 | 0.001 | 1.2 | 0.002 | 0.001 | 0.001 | 3.5 | MIC values (concentrations in μg/ml required for 90% inhibition) (Streptococcus - gr.B/61): >64 µg/mL; MIC values (concentrations in μg/ml required for 90% inhibition) (S. aureus/ATCC 29213): 1 µg/mL; MIC values (concentrations in μg/ml required for 90% inhibition) (S. aureus/1 Aus-pe): 1 µg/mL; MIC values (concentrations in μg/ml required for 90% inhibition) (Staphylococcus/379-2): 64 µg/mL; MIC values (concentrations in μg/ml required for 90% inhibition) (S. aureus/54 USA-br): 8 µg/mL; MIC values (concentrations in μg/ml required for 90% inhibition) (C. diphteria/62001): 0.063 µg/mL; MIC values (concentrations in μg/ml required for 90% inhibition) [1]: 16 µg/mL; MIC values (concentrations in μg/ml required for 90% inhibition) (N. meningitidis/K1): 1 µg/mL; MIC values (concentrations in μg/ml required for 90% inhibition) (Staphylococcus/291-2): 1 µg/mL; MIC values (concentrations in μg/ml required for 90% inhibition) [2]: 64 µg/mL; MIC values (concentrations in μg/ml required for 90% inhibition) (Streptococcus - gr.C/68): 4 µg/mL; MIC values (concentrations in μg/ml required for 90% inhibition) (Streptococcus - gr.G/59): 8 µg/mL; MIC values (concentrations in μg/ml required for 90% inhibition) (N. gonorrhoea/C1): 4 µg/mL; MIC values (concentrations in μg/ml required for 90% inhibition) (M. tuberculosis/R 498): 16 µg/mL; MIC values (concentrations in μg/ml required for 90% inhibition) (P. acnes/1060): 0.5 µg/mL; MIC values (concentrations in μg/ml required for 90% inhibition) (S. aureus/22 DK): 1 µg/mL; retained initial activity [3]: > 80% |
| CC(=O)O[C@H]1C[C@@]2(C)[C@@H](C[C@@H](O)[C@H]3[C@@]4(C)CC[C@@H](O)[C@@H](C)[C@@H]4CC[C@@]32C)[C@H]1[C@H](CCCC(C)C)C(=O)O [Compound 102, 17(S),20(S),24,25-Tetrahydrofusidic Acid] | MIC>64 μg/ml | 0.12 | 0.009 | 3.9 | 0.016 | 0.02 | 0.015 | 3.4 |  |
| CCC(=O)OC1CC2(C)C(CC(O)C3C4(C)CCC(O)C(C)C4CCC32C)C1C(CCC=C(C)C)C(=O)O [Compound 105, 16-Deacetoxy-16β-propionyloxy-17(S),20(S)-dihydrofusidic Acid] | >64 µg/mL | 0.24 | 0.063 | 3.9 | 0.22 | 0.19 | 0.08 | >64 |  |
| CC(C)=CCCC(C(=O)O)C1C(OC(=O)C2CCCCC2)CC2(C)C1CC(O)C1C3(C)CCC(O)C(C)C3CCC12C [Compound 113, 16-Deacetoxy-16β-cyclohexylcarbonyloxy-17(S),20(S)-dihydrofusidic acid] | >64 µg/mL | 16 | 16 | >64 | 16 | 16 | >64 | 4 |  |
